Results reported in US6737038B1, “Use of small molecule radioligands to discover inhibitors of amyloid-beta peptide production and for diagnostic imaging” (Bristol-Myers Squibb Company, priority 1998, dated 2004).

What was measured:
[1] = tested on: HEK293 cells expressing APP 695 wt; experiment: Aβ production in HEK293 cells expressing APP 695 wt, compared with I-7T binding to membranes of the same cell line; assay type: cell-based
Text: The concentration of Compound (I-7) leading to half-maximal inhibition (IC50) of proteolytic activity leading to Aβ production in HEK293 cells expressing APP 695 wt is similar to the concentration leading to half-maximal inhibition (IC50) of Compound (I-7T) binding to membranes derived from the same cell line. […] Also using a compound of Formula (I), we have discovered a macromolecule containing a binding site of action for compounds of Formula (I) critical to the processing of APP and the production of Aβ.
bind specifically to a binding site on a macromolecule or a complex of macromolecules involved in APP processing to produce reduction of Aβ peptide production. For example, the concentration of Compound (I-7) leading to half-maximal inhibition (IC50) of Aβ production in HEK293 cells expressing APP 695 wt is similar to the concentration leading to half-maximal inhibition (IC50) of Compound (I-7T) binding to membranes derived from the same cell line.

[2] = tested on: membrane binding site of Example 7; experiment: Radioligand Competition Binding Assay (RCB Assay)
[3] = biological target: T1, presenilin 1 (Homo sapiens, UniProt P49768); experiment: immunoprecipitation of cross-linked polypeptides with antibodies to presenilin 1; assay type: binding; settings: THP-1 membranes, Example 43T 30 nM plus competing compound
T1 construct: endogenous in cells; host or cells: THP-1 cell membranes
Experimental: The membranes were collected by centrifugation. The membranes were extracted with 50 mM Tris, pH 7.5 containing 100 mM KCl, 2 mM EDTA, 2% CHAPS and 1 complete protease inhibitor tablet per 25 ml buffer (COMPLETE™, Boehringer Mannheim; product number 1697 498)) for 1 hour at 4° C. The detergent soluble fraction was recovered by centrifugation (40,000 g, 30 min, 4° C.). The membrane extract was diluted one half with water. 500 ul of the membrane extract were pre-incubated with 10 ul of normal mouse IgG and 50 ul anti-mouse IgG Sepharose (Sigma) for 1 hour at 4° C. The supernatant was recovered by centrifugation. Subsequently, 10 ug of preimmune IgG (Sigma) or 10 ug of a monoclonal antibody to presenilin 1 was added in the presence of 50 ul anti-mouse IgG Sepharose. Examples of commercially available antibodies to presenilin 1 are Chemicon International: rat anti-human Presenilin 1 monoclonal antibody; product number MAB 1563; or Santa Cruz Biotechnology: goat anti Presenilin 1; product number SC-1244; or Santa Cruz Biotechnology: goat anti Presenilin 1; product number SC-1245. […] Radioactivity bound to the Sepharose beads was dissociated by boiling in SDS sample buffer (4×) containing 50 mM dithiothreitol. […]

| Molecule | apparent Ki: RCB Assay conducted with Example 7T versus Example 11T [2] | IC50 of Aβ production compared with IC50 of Compound (I-7T) binding to membranes from the same cell line [1] | other results |
| --- | --- | --- | --- |
| CC(NC(=O)Cc1cc(F)cc(F)c1)C(=O)NC1N=C(c2ccccc2)c2ccccc2N(C)C1=O (stereo not shown) [Example 98, reference compound] | statistically significant correlation |  | competition of cross-linking / immunoprecipitation of labeled bands (FIG. 2) [3]: not in the presence of Example 98 |
| Tritiated (2S,3R) N1-[1,3-Dihydro-1-methyl-2-oxo-5-(phenyl)-2H-1,4-benzodiazepin-3-yl]-2-(2-methylpropyl)-3-(n-propyl)-butanediamide [Example 43T] |  | correlation holds | equivalency to Example 7T as radioactive tracer in the RCB Assay [2]: can be used instead of Example 7T |

Further lines, with some results ahead:

| apparent Ki: RCB Assay conducted with Example 7T versus Example 11T [2] | Molecule | IC50 of Aβ production compared with IC50 of Compound (I-7T) binding to membranes from the same cell line [1] | other results |
| --- | --- | --- | --- |
| statistically significant correlation | CCC[C@H](C(N)=O)[C@@H](CC(C)C)C(=O)N[C@H]1CCCCN(Cc2cccc(Oc3ccccc3)c2)C1=O [Example 7, (2R,3S) N1-[(3S)-Hexahydro-1-(3-phenoxybenzyl)-2-oxo-1H-azepin-3-yl]-2-(2-methylpropyl)-3-(propyl)-butanediamide] | similar |  |
| statistically significant correlation | CCC[C@H](C(N)=O)[C@@H](CC(C)C)C(=O)N[C@H]1CCCCN(Cc2cccc(C(=O)c3ccccc3)c2)C1=O [Example 11] |  | IC50 in β APPA Assay versus RCB Assay with Example 7T as radiolabeled standard [2]: statistically significant correlation of IC50 values; cross-linking to the membrane binding site ([2]; THP-1 membranes, photolysis at 365 nm): cross-linked to the membrane binding site of Example 7 |
| statistically significant correlation | CC(C)C[C@H](CC(N)=O)C(=O)N[C@H]1CCCCN(Cc2cccc(Oc3ccccc3)c2)C1=O [Example 99] |  |  |
